# Results: patent US8604202B2, “Thienopyridone derivatives as AMP-activated protein kinase (AMPK) activators” (Merck Patent GmbH, priority 2008, dated 2013)
# Target: T1, AMPK protein (recombinant α1β1γ2) (Homo sapiens, UniProt Q13131+Q9Y478)
# T1 construct: made in house; host or cells: E. coli
# Assay: AMPK enzymatic activity (Delfia, AMARA peptide)
# Format: biochemical
# Conditions: compound 30 μM vs AMP 30 μM; 125 μM ATP; 30 min room temperature; ratio 90% or higher = direct activator
# Protocol: The following biological test allows the determination of the efficacy of such compounds of formula (I) onto AMPK protein (recombinant α1β1γ2).
# Human recombinant AMPK enzyme was expressed in E. Coli and was reactivated in vitro by LKB1 prior to enzyme activity determination.
# AMPK enzyme activities were assayed by using A Delfia technology. AMPK enzyme activities were carried out in microtiter plates (50 mM Hepes buffer, pH 7.4 with 125 μM ATP respectively) in the presence of a synthetic peptide substrate (AMARAASAAALARRR, the “AMARA” peptide) and activators in serial dilutions. Reactions were initiated by the addition of AMPK (50-100 ng). Following mixing, the plates were incubated for 30 min at room temperature. Enzyme activity was assayed by using an anti-phosphoserine antibody to measure the quantity of phosphate incorporated into the AMARAA.
# Ratio between the % of control (basal activity) of compound of formula (I) at 30 μM and the % of control (basal activity) of AMP (natural substrate) at 30 μM. Compounds of formula (I) in the table II are considered as direct activator of AMPK if the ratio is 90% or higher.
# T1 sequence (Q13131 whole entry): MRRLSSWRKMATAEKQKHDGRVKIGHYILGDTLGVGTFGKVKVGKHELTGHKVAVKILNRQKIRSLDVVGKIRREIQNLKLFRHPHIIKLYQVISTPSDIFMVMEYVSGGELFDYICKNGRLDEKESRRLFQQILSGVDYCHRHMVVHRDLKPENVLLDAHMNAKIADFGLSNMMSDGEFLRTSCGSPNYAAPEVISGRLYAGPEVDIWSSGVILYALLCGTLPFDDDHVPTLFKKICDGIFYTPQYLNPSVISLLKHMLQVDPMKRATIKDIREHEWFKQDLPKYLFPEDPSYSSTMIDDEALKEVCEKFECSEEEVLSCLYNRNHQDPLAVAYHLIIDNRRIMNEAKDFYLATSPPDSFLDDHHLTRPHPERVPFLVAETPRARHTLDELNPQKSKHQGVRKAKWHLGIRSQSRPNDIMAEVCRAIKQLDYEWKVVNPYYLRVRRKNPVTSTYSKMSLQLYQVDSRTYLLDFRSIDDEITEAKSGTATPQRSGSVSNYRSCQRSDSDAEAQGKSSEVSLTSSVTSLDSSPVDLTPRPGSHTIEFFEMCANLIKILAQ
# T1 sequence (Q9Y478 whole entry): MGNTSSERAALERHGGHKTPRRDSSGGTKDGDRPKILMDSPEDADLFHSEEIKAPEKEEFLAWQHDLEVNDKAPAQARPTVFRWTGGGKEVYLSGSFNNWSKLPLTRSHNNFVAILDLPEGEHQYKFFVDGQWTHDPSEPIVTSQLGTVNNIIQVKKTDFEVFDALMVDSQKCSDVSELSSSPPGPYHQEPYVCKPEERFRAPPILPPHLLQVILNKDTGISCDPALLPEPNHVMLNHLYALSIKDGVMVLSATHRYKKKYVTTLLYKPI
# T1 sequence (Q9UGJ0 whole entry partner): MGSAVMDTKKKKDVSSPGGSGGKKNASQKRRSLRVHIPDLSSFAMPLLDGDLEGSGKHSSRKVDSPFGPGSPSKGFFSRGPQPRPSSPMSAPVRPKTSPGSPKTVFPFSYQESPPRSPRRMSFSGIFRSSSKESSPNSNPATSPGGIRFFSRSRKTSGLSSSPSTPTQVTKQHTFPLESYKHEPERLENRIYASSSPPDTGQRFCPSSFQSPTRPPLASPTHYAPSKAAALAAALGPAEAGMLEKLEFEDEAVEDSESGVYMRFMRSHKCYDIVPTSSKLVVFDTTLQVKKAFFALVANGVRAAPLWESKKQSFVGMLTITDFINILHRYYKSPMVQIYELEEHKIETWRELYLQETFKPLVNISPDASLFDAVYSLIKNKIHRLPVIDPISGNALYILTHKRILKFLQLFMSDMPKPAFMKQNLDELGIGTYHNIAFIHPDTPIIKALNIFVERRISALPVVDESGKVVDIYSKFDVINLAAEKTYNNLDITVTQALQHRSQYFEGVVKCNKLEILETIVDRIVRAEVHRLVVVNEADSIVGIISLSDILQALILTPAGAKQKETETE
row,SMILES,activity: Ratio between the % of control (basal activity) of compound of formula (I) at 30 μM and the % of control (basal activity) of AMP at 30 μM [%]
1,"O=c1[nH]c2scc(-c3ccc(-c4cccc(F)c4)cc3)c2c(O)c1-c1cccnc1 [Compound 33, 3-(3′-fluorobiphenyl-4-yl)-4-hydroxy-5-pyridin-3-yl-6,7-dihydro-thieno[2,3-b]pyridin-6-one]",147
2,"O=c1[nH]c2scc(-c3ccc(-c4ccc(F)cc4)cc3)c2c(O)c1-c1ccccc1 [Compound 13, 3-(4′-fluorobiphenyl-4-yl)-4-hydroxy-5-phenyl-6,7-dihydro-thieno[2,3-b]pyridin-6-one]",206
3,"N#Cc1cccc(-c2ccc(-c3csc4[nH]c(=O)c(-c5ccccc5)c(O)c34)cc2)c1 [Compound 17, 3-(3′-cyanobiphenyl-4-yl)-4-hydroxy-5-phenyl-6,7-dihydro-thieno[2,3-b]pyridin-6-one]",116
4,"COC(=O)c1ccc(-c2ccc(-c3csc4[nH]c(=O)c(-c5ccncc5)c(O)c34)cc2)cc1 [Compound 25, Methyl 4′-(4-hydroxy-6-oxo-5-pyridin-4-yl-6,7-dihydro-thieno[2,3-b]pyridin-3-yl)biphenyl-4-carboxylate]",154
5,"O=c1[nH]c2scc(-c3ccc(-c4ccoc4)cc3)c2c(O)c1-c1ccncc1 [Compound 27, 3-[4-(3-furyl)phenyl]-4-hydroxy-5-pyridin-4-yl-6,7-dihydro-thieno[2,3-b]pyridin-6-one]",199
6,"O=c1[nH]c2scc(-c3ccc(-c4ccccc4)cc3)c2c(O)c1-c1ccncc1 [Compound 26, 3-biphenyl-4-yl-4-hydroxy-5-pyridin-4-yl-6,7-dihydro-thieno[2,3-b]pyridin-6-one]",258
7,"O=c1[nH]c2sc(Cl)c(-c3ccc(-c4ccccc4O)cc3)c2c(O)c1-c1ccccc1 [Compound 5, 2-chloro-4-hydroxy-3-(2′-hydroxybiphenyl-4-yl)-5-phenyl-6,7-dihydro-thieno[2,3-b]pyridin-6-one]",138
8,"N#Cc1ccc(-c2ccc(-c3csc4[nH]c(=O)c(-c5ccccc5)c(O)c34)cc2)cc1 [Compound 19, 3-(4′-cyanobiphenyl-4-yl)-4-hydroxy-5-phenyl-6,7-dihydro-thieno[2,3-b]pyridin-6-one]",217
9,"O=c1[nH]c2scc(-c3ccc(-c4ccc(O)cc4)cc3)c2c(O)c1-c1ccccc1 [Compound 12, 4-hydroxy-3-(4′-hydroxybiphenyl-4-yl)-5-phenyl-6,7-dihydro-thieno[2,3-b]pyridin-6-one]",139
10,"O=c1[nH]c2scc(-c3ccc(-c4ccc(F)cc4)cc3)c2c(O)c1-c1cccnc1 [Compound 34, 3-(4′-fluorobiphenyl-4-yl)-4-hydroxy-5-pyridin-3-yl-6,7-dihydro-thieno[2,3-b]pyridin-6-one]",165
11,"O=c1[nH]c2scc(-c3ccc(-c4ccc(F)cc4)cc3)c2c(O)c1-c1ccncc1 [Compound 23, 3-(4′-fluorobiphenyl-4-yl)-4-hydroxy-5-pyridin-4-yl-6,7-dihydro-thieno[2,3-b]pyridin-6-one]",163
12,"O=c1[nH]c2scc(-c3ccc(-c4ccc(C(F)(F)F)cc4)cc3)c2c(O)c1-c1ccccc1 [Compound 16, 4-hydroxy-5-phenyl-3-(4′-trifluoromethylbiphenyl-4-yl)-6,7-dihydro-thieno[2,3-b]pyridin-6-one]",101
13,"O=c1[nH]c2scc(-c3ccc(-c4ccoc4)cc3)c2c(O)c1-c1cccnc1 [Compound 38, 4-hydroxy-3-[4-(3-furyl)phenyl]-5-pyridin-3-yl-6,7-dihydro-thieno[2,3-b]pyridin-6-one]",145
14,"Cc1ccc(-c2ccc(-c3csc4[nH]c(=O)c(-c5cccnc5)c(O)c34)cc2)cc1 [Compound 37, 4-hydroxy-3-(4′-methylbiphenyl-4-yl)-5-pyridin-3-yl-6,7-dihydro-thieno[2,3-b]pyridin-6-one]",168
15,"Cc1ccc(-c2ccc(-c3csc4[nH]c(=O)c(-c5ccncc5)c(O)c34)cc2)cc1 [Compound 24, 4-hydroxy-3-(4′-methylbiphenyl-4-yl)-5-pyridin-4-yl-6,7-dihydro-thieno[2,3-b]pyridin-6-one]",191
16,"O=c1[nH]c2scc(-c3ccc(-c4ccc(O)cc4)cc3)c2c(O)c1-c1ccncc1 [Compound 29, 4-hydroxy-3-(4′-hydroxybiphenyl-4-yl)-5-pyridin-4-yl-6,7-dihydro-thieno[2,3-b]pyridin-6-one]",213
17,"O=c1[nH]c2scc(-c3ccc(-c4ccccc4O)cc3)c2c(O)c1-c1ccncc1 [Compound 28, 4-hydroxy-3-(2′-hydroxybiphenyl-4-yl)-5-pyridin-4-yl-6,7-dihydro-thieno[2,3-b]pyridin-6-one]",246

# More lines, now with the values ahead:
row,activity: Ratio between the % of control (basal activity) of compound of formula (I) at 30 μM and the % of control (basal activity) of AMP at 30 μM [%],SMILES
1,162,"O=c1[nH]c2scc(-c3ccc(-c4cccnc4)cc3)c2c(O)c1-c1cccnc1 [Compound 40, 4-hydroxy-5-pyridin-3-yl-3-(4-pyridin-3-ylphenyl)-6,7-dihydro-thieno[2,3-b]pyridin-6-one]"
2,128,"O=c1[nH]c2scc(-c3ccc(-c4ccc(CO)cc4)cc3)c2c(O)c1-c1ccccc1 [Compound 59, 4-hydroxy-3-(4′-hydroxymethylbiphenyl-4-yl)-5-phenyl-6,7-dihydro-thieno[2,3-b]pyridin-6-one]"
3,118,"COc1cc(-c2csc3[nH]c(=O)c(-c4ccccc4)c(O)c23)ccc1-c1ccc(F)cc1 [Compound 47, 3-(4′-fluoro-2-methoxybiphenyl-4-yl)-4-hydroxy-5-phenyl-6,7-dihydro-thieno[2,3-b]pyridin-6-one]"
4,124,"COc1cc(-c2csc3[nH]c(=O)c(-c4ccccc4)c(O)c23)ccc1-c1ccc(C)cc1 [Compound 46, 4-hydroxy-3-(4′-methyl-2-methoxybiphenyl-4-yl)-5-phenyl-6,7-dihydro-thieno[2,3-b]pyridin-6-one]"
5,143,"COc1cc(-c2csc3[nH]c(=O)c(-c4ccccc4)c(O)c23)ccc1-c1cccnc1 [Compound 56, 4-hydroxy-3-[3-methoxy-4-pyridin-3-ylphenyl]-5-phenyl-6,7-dihydro-thieno[2,3-b]pyridin-6-one]"
6,147,"O=c1[nH]c2scc(-c3ccc(-c4cccc(CO)c4)cc3)c2c(O)c1-c1cccnc1 [Compound 39, 4-hydroxy-3-(3′-hydroxymethylbiphenyl-4-yl)-5-pyridin-3-yl-6,7-dihydro-thieno[2,3-b]pyridin-6-one]"
7,264,"COc1cc(-c2csc3[nH]c(=O)c(-c4ccccc4)c(O)c23)ccc1-c1ccc(O)cc1 [Compound 48, 4-hydroxy-3-(4′-hydroxy-2-methoxybiphenyl-4-yl)-5-phenyl-6,7-dihydro-thieno[2,3-b]pyridin-6-one]"
8,421,"Cc1ccc(-c2ccc(-c3csc4[nH]c(=O)c(-c5ccccc5)c(O)c34)cc2O)cc1 [Compound 50, 4-hydroxy-3-(2-hydroxy-4′-methylbiphenyl-4-yl)-5-phenyl-6,7-dihydro-thieno[2,3-b]pyridin-6-one]"
9,107,"COc1cc(F)ccc1-c1ccc(-c2csc3[nH]c(=O)c(-c4ccccc4)c(O)c23)cc1 [Compound 42, 3-(4′-fluoro-2′-methoxybiphenyl-4-yl)-4-hydroxy-5-phenyl-6,7-dihydro-thieno[2,3-b]pyridin-6-one]"
10,111,"O=c1[nH]c2scc(-c3ccc(-c4cccc(CO)c4)cc3)c2c(O)c1-c1ccccc1 [Compound 58, 4-hydroxy-3-(3′-hydroxymethylbiphenyl-4-yl)-5-phenyl-6,7-dihydro-thieno[2,3-b]pyridin-6-one]"
